Assay results published in patent publication US20100137421A1, “SMALL MOLECULE THERAPEUTICS, SYNTHESIS OF ANALOGUES AND DERIVATIVES AND METHODS OF USE” (priority 2006, published 2010).
pIC50: −log10 of the molar value. Read-outs that look alike come from different tables or passages of the source.

How the values were obtained:
[1] = test system: HL-60/ADR cells (multidrug resistant clone, mdr-1 transfected); test: 3H-thymidine incorporation assay, HL-60/ADR; type: cell-based; details: 48 h incubation, 3H-thymidine pulse 6 h, read-out: IC50, inhibition of cell proliferation, HL-60/ADR
Protocol: (§1) The ability of the compounds to inhibit cancer cell growth was evaluated in promyelocytic leukemia cell line, HL-60, using a ^3H-thymidine incorporation assay. Cells were plated in a 96-well plate at 10-20×10^3 cells/well in RPMI supplemented with 10% fetal bovine serum, 2 mM glutamine, 1% penicillin/streptomycin (complete medium). The caged Garcinia xanthones were added to the cells at increasing concentrations and 0.1% DMSO was added to control cells. Cells were incubated for 48 h and then pulsed with ^3H-thymidine for 6 h. Incorporation of ^3H-thymidine was determined in a scintillation counter (Beckman Coulter Inc., Fullerton, Calif.) after cells were washed and deposited onto glass microfiber filters using a cell harvester M-24 (Brandel, Gaithersburg, Md.). Table 1 provides IC50 values for the natural products gambogic acid and gambogin, forbesione and deoxymorellin.
The compounds were also evaluated in HL-60/ADR cells, a multidrug resistant clone obtained by transfection of HL-60 cells with mdr-1. (See, A. Batova, L. E. Shao, M. B. Diccianni, A. L. Yu, T. Tanaka, A. Rephaeli, A. Nudelman and J. Yu, Blood, 2002, 100, 3319-24). […] Without being bound to any particular theory, it is believed that the caged Garcinia xanthones are not subject to the mechanism of chemo-resistance resulting from the expression of mdr, characteristic of many relapsed cancers. (See, M. M. Gottesman and I. Pastan, Annu. Rev. Biochem., 1993, 62, 385-427; S. Simon, D. Roy and M. Schindler, PNAS, 1994, 91, 1128-1132 and A. K. Larsen, A. E. Escargeuil and A. Skladanowski, Pharmacol. Ther., 2000, 85, 217-229).

[2] = test system: HL-60 promyelocytic leukemia cell line; test: 3H-thymidine incorporation assay, HL-60; type: cell-based; details: HL-60, 48 h incubation, 3H-thymidine pulse 6 h, read-out: IC50, inhibition of cell proliferation, HL-60
Protocol: as §1

[3] = test system: CEM T-cell acute lymphoblastic leukemia cell line; test: Trypan-blue exclusion assay, CEM; type: cell-based; details: Homo sapiens, read-out: IC50 (μM), CEM leukemia
Protocol: (§2) Compounds such as desoxymorellin, gambogic acid, gambogin and 17 were further evaluated in a panel of solid and non-solid tumor cell lines. CEM cells were plated in a 24-well plate in complete media at 50×10^3 cells/well. Cells were treated with gambogin at concentrations of 0.25, 0.5, 1.0 μM or with 0.1% DMSO (control cells). Cells were incubated for 4 days and then the number of viable cells was determined after the addition of trypan-blue dye by counting the cells which exclude trypan-blue in a hemocytometer. Data for inhibition of cell proliferation is provided in.

[4] = test system: HT29 (colon); test: Trypan-blue exclusion assay, HT29; type: cell-based
[5] = test system: PC3 (prostate); test: Trypan-blue exclusion assay, PC3; type: cell-based
[6] = test system: M21 (melanoma); test: Trypan-blue exclusion assay, M21; type: cell-based
Protocol: as §2

[7] = Animal study, body weight/toxicity in SCID mice injected with primary human leukemia cells; type: in vivo; details: IV injections
Protocol: SCID mice were injected with primary human leukemia cells. Seven days following injection of leukemia cells, mice were given IV injections of gambogic acid, gambogic acid analog (17), or PBS (control). Each treatment group contained 3 mice which were monitored for body weight upon each injection.

[8] = test system: A549 (lung); test: Trypan-blue exclusion assay, A549; type: cell-based
[9] = test system: MCF-7 (breast); test: Trypan-blue exclusion assay, MCF-7; type: cell-based
[10] = test system: HEL (Human Embryonic Lung fibroplasts); details: cited from earlier work
[11] = test system: (HeLa) Henrietta Lacks cervical cancer cells; details: cited from earlier work
[12] = WST assay, cell viability; type: cell-based; details: human, HUVE (human umbilical vein endothelial) cells, 24 h incubation, read-out: IC50, cytotoxicity (WST assay)
Protocol: Cell viability was determined using the WST assay in HUVE (human umbilical vein endothelial) cells that measures metabolic activity of cells alive. Compound 17 was dissolved in DMSO and further diluted with Endothelial Cell Growth Medium (PromoCell, Heidelberg, Germany) to obtain a final concentration as indicated. HUVE cells (PromoCell, Heidelberg, Germany) were seeded into each well of a 96-well cell culture plate at 7000 cells per well and incubated at 37° C. for 24 h with the indicated concentrations of each compound. The final volume was 100 μL per well. Control samples were incubated with the solvent alone. Each experiment was repeated in triplicate. Afterwards the WST-1 reagent was added to the cells at 10 μL per well and the cells further incubated at 37° C. for additional 3 h. Then the cell culture plate was agitated thoroughly for 1 minute on a shaker at 200 U/min. The absorbance of each sample was measured using a microplate reader at 440 nm. The reference wavelength was 690 nm.

[13] = test system: HUVE cells; test: Apoptosis assay (Cell Death Detection ELISA PLUS); type: cell-based, human
Protocol: The compounds were dissolved in DMSO and further diluted with Endothelial Cell Growth Medium (PromoCell, Heidelberg, Germany) to obtain final concentrations as indicated. HUVE cells were seeded into each well of a 96-well cell culture plate at 10000 cells per well and incubated at 37° C. for 10 h with the indicated concentrations of each compound. The final volume was 100 μL per well. Control samples were incubated with the solvent alone. Each sample was repeated three times. The proapoptotic effect was detected by using the Cell Death Detection ELISA^PLUS kit (Roche Diagnostics GmbH, Mannheim, Germany) according to the manufactor's instructions. The kit constitutes a photometric enzyme-immunoassay for the qualitative and quantitative in vitro determination of cytoplasmic histone-associated-DNA-fragments (mono- and oligo-nucleosomes) after induced cell death. Due to the working procedure the kind of cell death (apoptosis or necrosis) […]. The absorption values A (A405nm-A490nm) measured give a quantitative indication of the induced amount of apoptosis/necrosis. The higher the absorption A, the higher the induction of apoptosis/necrosis at the corresponding concentrations of the compounds.

| Structure (SMILES) | pIC50 [1] | pIC50 [2] | IC50 ([3]; 96 h, CEM, 4 days incubation) [µM] | IC50 ([4]; Homo sapiens, HT-29) [µM] | IC50 ([5]; Homo sapiens, PC-3) [µM] | IC50 ([6]; Homo sapiens) [µM] | pIC50 ([1]; Homo sapiens, HL60/ADR) | toxicity (body weight) compared to PBS control [7] | pIC50 ([2]; Homo sapiens) | IC50 ([8]; Homo sapiens) [µM] | IC50 ([9]; Homo sapiens, MCF7) [µM] | further results |
| --- | --- | --- | --- | --- | --- | --- | --- | --- | --- | --- | --- | --- |
| CC(C)=CCc1c(O)cc(O)c2c1O[C@]13C(=C[C@@H]4C[C@H]1C(C)(C)O[C@@]3(CC=C(C)C)C4=O)C2=O [Forbesione] | 5.70 | 5.66 |  |  |  |  |  |  |  |  |  |  |
| CC(C)=CCC[C@]1(C)C=Cc2c(O)c3c(c(CC=C(C)C)c2O1)O[C@]12C(=C[C@@H]4C[C@H]1C(C)(C)O[C@@]2(C/C=C(/C)C(=O)O)C4=O)C3=O [gambogic acid] |  |  | 0.15 | 0.7 | 0.4 | 1.2 | 6.30 | some toxicity | 6.52 | 1.8 | 0.4 |  |
| CC(C)=CCc1c2c(c(O)c3c1O[C@]14C(=C[C@@H]5C[C@H]1C(C)(C)O[C@@]4(C/C=C(/C)C=O)C5=O)C3=O)C=CC(C)(C)O2 [morellin] |  |  |  |  |  |  |  |  |  |  |  | cytotoxicity against HEL [10]: good cytotoxicity; cytotoxicity against HeLa [11]: good cytotoxicity |
| CC(C)=CCc1c2c(c(O)c3c1O[C@@]14C(=C[C@H]5CC1C(C)(C)O[C@]4(CC=C(C)C)C5=O)C3=O)C=CC(C)(C)O2 [desoxymorellin] | 5.96 | 6.00 |  |  |  |  |  |  |  |  |  | IC50 ([4]; HT29): 1.2 µM; IC50 ([5]; PC3): 1.2 µM; IC50 [6]: 1.6 µM; IC50 [8]: 2.1 µM; IC50 ([9]; MCF-7): 0.9 µM |
| CC(C)=CCC12OC(C)(C)C3CC(C=C4C(=O)c5ccccc5OC431)C2=O (stereo not drawn) [Compound 17] |  |  | 0.3 | 3.1 |  | 2.2 | 5.85 | no significant toxicity | 5.82 | > 4 |  | IC50 at 24 h [12]: 1380 nM; subset of cells with necrosis ([13]; HUVE cells, concentrations >3 μM, 10 h): ~10%; cell necrosis ([13]; HUVE cells, concentrations lower than 1.5 μM, 10 h): not detected; HUVE cells undergoing apoptosis ([13]; after 10 h, dose-dependent): > 90% |
| CC(C)=CCCC1(C)C=Cc2c(O)c3c(c(CC=C(C)C)c2O1)O[C@]12C(=CC4C[C@H]1C(C)(C)OC2(CC=C(C)C)C4=O)C3=O (stereo partly drawn) [gambogin] |  |  |  | 1 | 1.1 | 1 | 5.96 |  | 6.10 | 1.8 | 1.1 | IC50 ([3]; CEM-4, 96 h): 0.35 µM |
